Source: patent publication US20080090734A1, “DRUG SCREENING AND TARGET IDENTIFICATION USING SPR IMAGING OF TARGET PROTEIN ARRAYS” (The Trustees of California State University, priority 2006, published 2008)

Key:
Assay in all cases: Antibiotic susceptibility profile
Assay type in all cases: cell-based, Acinetobacter baumannii
Parameters in all cases: key: Resistance; Intermediate; Susceptible
[1] = system: A. baumannii clinical isolate NY D
Source text: (§1) We obtained over thirty clinical isolates of A. baumannii from nosocomial infections in New York City and Los Angeles. […] Only antibiotics with breakpoints for A. baumannii were used. […] Isolates LA 01 to 20 were acquired from Los Angels County while NY-A to NY-H were obtained from New York City.
(§2) Antibiotic susceptibility profiles of clinical isolates of A. baumannii and reference strains. R, I, and S denote Resistance, Intermediate and Susceptible, respectively. Genetic Profiling of Clinical Isolates of A. baumannii

[2] = system: A. baumannii clinical isolate LAC 08
Source text: as §1, §2

[3] = system: A. baumannii clinical isolate NY A
Source text: as §1, §2

[4] = system: A. baumannii clinical isolate LAC 17
Source text: as §1, §2

[5] = system: A. baumannii clinical isolate LAC 10
Source text: as §1, §2

[6] = system: A. baumannii reference strain 19606; details: strain 19606 (ATCC)
Source text: as §1, §2

[7] = system: A. baumannii clinical isolate LAC 12
Source text: as §1, §2

[8] = system: A. baumannii reference strain 17978; details: strain 17978 (ATCC)
Source text: as §1, §2

[9] = system: A. baumannii clinical isolate LAC 13
Source text: as §1, §2

[10] = system: A. baumannii clinical isolate LAC 09
Source text: as §1, §2

[11] = system: A. baumannii clinical isolate LAC 14
Source text: as §1, §2

[12] = system: A. baumannii clinical isolate LAC 19
Source text: as §1, §2

[13] = system: A. baumannii clinical isolate LAC 04
Source text: as §1, §2

[14] = system: A. baumannii reference strain 15839; details: strain 15839 (ATCC)
Source text: as §1, §2

[15] = system: A. baumannii clinical isolate LAC 01
Source text: as §1, §2

[16] = system: A. baumannii clinical isolate LAC 18
Source text: as §1, §2

[17] = system: A. baumannii clinical isolate NY E
Source text: as §1, §2

[18] = system: A. baumannii clinical isolate LAC 16
Source text: as §1, §2

[19] = system: A. baumannii clinical isolate LAC 20
Source text: as §1, §2

[20] = system: A. baumannii reference strain AYE
Source text: as §1, §2

[21] = system: A. baumannii clinical isolate LAC 11
Source text: as §1, §2

[22] = system: A. baumannii clinical isolate NY B
Source text: as §1, §2

[23] = system: A. baumannii clinical isolate LAC 07
Source text: as §1, §2

[24] = system: A. baumannii clinical isolate LAC 03
Source text: as §1, §2

[25] = system: A. baumannii clinical isolate LAC 06
Source text: as §1, §2

[26] = system: A. baumannii clinical isolate NY C
Source text: as §1, §2

[27] = system: A. baumannii clinical isolate LAC 15
Source text: as §1, §2

[28] = system: A. baumannii clinical isolate LAC 02
Source text: as §1, §2

[29] = system: A. baumannii reference strain SDF
Source text: as §1, §2

[30] = system: A. baumannii clinical isolate NY G
Source text: as §1, §2

[31] = system: A. baumannii clinical isolate LAC 05
Source text: as §1, §2

[32] = system: A. baumannii clinical isolate NY H
Source text: as §1, §2

[33] = system: A. baumannii clinical isolate NY F
Source text: as §1, §2

| Compound | Antibiotic susceptibility [1] | Antibiotic susceptibility [2] | Antibiotic susceptibility [3] | Antibiotic susceptibility [4] | Antibiotic susceptibility [5] | Antibiotic susceptibility [6] | Antibiotic susceptibility [7] | Antibiotic susceptibility [8] | Antibiotic susceptibility [9] | Antibiotic susceptibility [10] | Antibiotic susceptibility [11] | Antibiotic susceptibility [12] | Antibiotic susceptibility [13] | Antibiotic susceptibility [14] | Antibiotic susceptibility [15] | Antibiotic susceptibility [16] | Antibiotic susceptibility [17] | Antibiotic susceptibility [18] | Antibiotic susceptibility [19] | Antibiotic susceptibility [20] | other results |
| --- | --- | --- | --- | --- | --- | --- | --- | --- | --- | --- | --- | --- | --- | --- | --- | --- | --- | --- | --- | --- | --- |
| C[C@H]1c2cccc(O)c2C(=O)C2=C(O)[C@]3(O)C(=O)C(C(N)=O)=C(O)[C@@H](N(C)C)[C@@H]3[C@@H](O)[C@@H]21 [DOX, Doxycycline] | S | S | S | S | S | S | R | S | R | S | R | S | S | R | S | S | R | S | S | S | Antibiotic susceptibility [21]: R; Antibiotic susceptibility [22]: R; Antibiotic susceptibility [23]: S; Antibiotic susceptibility [24]: S; Antibiotic susceptibility [25]: S; Antibiotic susceptibility [26]: S; Antibiotic susceptibility [27]: S; Antibiotic susceptibility [28]: S; Antibiotic susceptibility [29]: S; Antibiotic susceptibility [30]: R; Antibiotic susceptibility [31]: S; Antibiotic susceptibility [32]: S; Antibiotic susceptibility [33]: S |
| CO/N=C(\C(=O)N[C@@H]1C(=O)N2C(C(=O)[O-])=C(C[N+]3(C)CCCC3)CS[C@H]12)c1csc(N)n1 [FEP, Cefepime] | R | I | I | R | R | I | R | S | R | R | R | R | I | I | R | R | R | R | R | R | Antibiotic susceptibility [21]: R; Antibiotic susceptibility [22]: R; Antibiotic susceptibility [23]: R; Antibiotic susceptibility [24]: R; Antibiotic susceptibility [25]: S; Antibiotic susceptibility [26]: R; Antibiotic susceptibility [27]: R; Antibiotic susceptibility [28]: R; Antibiotic susceptibility [29]: I; Antibiotic susceptibility [30]: R; Antibiotic susceptibility [31]: I; Antibiotic susceptibility [32]: R; Antibiotic susceptibility [33]: R |
| C[C@H]1COc2c(N3CCN(C)CC3)c(F)cc3c(=O)c(C(=O)O)cn1c23 [LVX, Levofloxacin] | R | R | I | R | R | S | R | S | R | R | R | I | S | R | I | R | R | R | R | I | Antibiotic susceptibility [21]: R; Antibiotic susceptibility [22]: R; Antibiotic susceptibility [23]: R; Antibiotic susceptibility [24]: R; Antibiotic susceptibility [25]: S; Antibiotic susceptibility [26]: R; Antibiotic susceptibility [27]: R; Antibiotic susceptibility [28]: I; Antibiotic susceptibility [29]: S; Antibiotic susceptibility [30]: R; Antibiotic susceptibility [31]: R; Antibiotic susceptibility [32]: I |
| CN(C)c1ccc(O)c2c1C[C@H]1C[C@H]3[C@H](N(C)C)C(O)=C(C(N)=O)C(=O)[C@@]3(O)C(O)=C1C2=O [MIN, Minocycline] | S | S | S | S | S | S | R | S | R | S | R | S | S | S | S | S | I | S | S | S | Antibiotic susceptibility [21]: R; Antibiotic susceptibility [22]: R; Antibiotic susceptibility [23]: S; Antibiotic susceptibility [24]: S; Antibiotic susceptibility [25]: S; Antibiotic susceptibility [26]: S; Antibiotic susceptibility [27]: S; Antibiotic susceptibility [28]: S; Antibiotic susceptibility [29]: S; Antibiotic susceptibility [30]: S; Antibiotic susceptibility [31]: S; Antibiotic susceptibility [32]: S |
